Biological target: NRF2 (nuclear factor erythroid 2-related factor 2) (Homo sapiens, UniProt Q16236)
Experiment: FP displacement of fluorescein-ARE DNA from purified NRF2-MAFG
Format: binding

NRF2 (nuclear factor erythroid 2-related factor 2), sequence (O15525 whole entry): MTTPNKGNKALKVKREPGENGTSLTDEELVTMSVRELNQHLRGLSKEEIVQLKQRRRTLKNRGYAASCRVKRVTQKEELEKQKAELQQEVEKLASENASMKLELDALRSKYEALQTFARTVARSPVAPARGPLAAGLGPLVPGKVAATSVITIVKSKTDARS
NRF2 (nuclear factor erythroid 2-related factor 2), sequence (Q16236 whole entry): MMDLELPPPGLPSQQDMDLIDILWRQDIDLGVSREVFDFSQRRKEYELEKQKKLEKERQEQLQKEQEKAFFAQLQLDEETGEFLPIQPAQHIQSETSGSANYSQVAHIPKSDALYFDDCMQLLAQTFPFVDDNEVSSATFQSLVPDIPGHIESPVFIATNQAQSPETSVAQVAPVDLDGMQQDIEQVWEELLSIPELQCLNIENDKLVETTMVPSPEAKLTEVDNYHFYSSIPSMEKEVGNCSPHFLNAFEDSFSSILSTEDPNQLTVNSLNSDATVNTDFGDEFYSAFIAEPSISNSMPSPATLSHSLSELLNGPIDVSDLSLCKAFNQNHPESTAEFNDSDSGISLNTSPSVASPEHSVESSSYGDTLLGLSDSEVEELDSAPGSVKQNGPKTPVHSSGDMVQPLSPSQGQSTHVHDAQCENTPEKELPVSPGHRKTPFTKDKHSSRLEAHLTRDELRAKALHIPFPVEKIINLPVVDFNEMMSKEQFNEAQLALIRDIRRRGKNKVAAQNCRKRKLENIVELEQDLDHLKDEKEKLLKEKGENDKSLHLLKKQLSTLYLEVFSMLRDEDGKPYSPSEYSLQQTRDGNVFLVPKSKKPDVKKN

With Cc1ccccc1C(=O)N1CCc2cc(-c3nc(NC(=O)Cc4ccc5c(c4)OCO5)sc3C)ccc21 [compound 2, ML385] the IC50 was 1.9 µM.

Reference: paper PMC5367156 (ACS chemical biology, 2016)
